Measurements reported in US8101170B2, “Probiotic health or fitness promoting human or animal foodstuff and/or drinking water additive and use thereof” (Erber Aktiengesellschaft, priority 2005, dated 2012).
Values joined by “and” are separate entries in the source; they are usually repeats but may differ in a detail not shown here. Identical values can stand only once. Like-named read-outs stand apart in the source and are kept apart here.

How the values were obtained:
Type in all cases: cell-based
Clostridium perfringens = tested on: Clostridium perfringens
Salmonella choleraesuis = test: Agar plate assay, inhibition of pathogenic germs by CE test germs
Campylobacter jejuni = test: as above
E. coli = test: as above

Bifidobacterium animalis [DSM 20104]
inhibition zone to test germ ratio, Clostridium perfringens (Clostridium perfringens): 1.42 | inhibition zone to test germ ratio, Salmonella choleraesuis (Salmonella choleraesuis; MRS agar): 0.65 | inhibition zone to test germ ratio, Campylobacter jejuni (Campylobacter jejuni; MRS agar): 0.31

Enterococcus faecium [DSM 16211]
inhibition zone to test germ ratio, Clostridium perfringens (Clostridium perfringens): 1.43 | inhibition zone to test germ ratio, Salmonella choleraesuis (Salmonella choleraesuis; MRS agar): 1.37 | inhibition zone to test germ ratio, Campylobacter jejuni (Campylobacter jejuni; MRS agar): 1.28

Lactobacillus reuteri [DSM 20016]
inhibition zone to test germ ratio, Clostridium perfringens (Clostridium perfringens): 1.54 | inhibition zone to test germ ratio, Salmonella choleraesuis (Salmonella choleraesuis; MRS agar): 1.20 | inhibition zone to test germ ratio, Campylobacter jejuni (Campylobacter jejuni; MRS agar): 1.35

Lactobacillus salivarius [DSM 20555]
inhibition zone to test germ ratio, Clostridium perfringens (Clostridium perfringens): 1.63 | inhibition zone to test germ ratio, Salmonella choleraesuis (Salmonella choleraesuis; MRS agar): 1.09 | inhibition zone to test germ ratio, Campylobacter jejuni (Campylobacter jejuni; MRS agar): 1.41

Lactobacillus salivarius ssp. salivarius [DSM 16351]
inhibition zone to test germ ratio, Clostridium perfringens (Clostridium perfringens): 2.05 | inhibition zone to test germ ratio, Salmonella choleraesuis (Salmonella choleraesuis; MRS agar): 1.46 | inhibition zone to test germ ratio, Campylobacter jejuni (Campylobacter jejuni; MRS agar): 1.50

Enterococcus faecium [NCIMB 10415]
inhibition zone to test germ ratio, Clostridium perfringens (Clostridium perfringens): 1.31 | inhibition zone to test germ ratio, Salmonella choleraesuis (Salmonella choleraesuis): 1.20 | inhibition zone to test germ ratio, E. coli (E. coli): 1.37 and 1.35 | inhibition zone to test germ ratio, Campylobacter jejuni (Campylobacter jejuni): 1.22

Lactobacillus reuteri [DSM 16350]
inhibition zone to test germ ratio, Clostridium perfringens (Clostridium perfringens): 2.12 | inhibition zone to test germ ratio, Salmonella choleraesuis (Salmonella choleraesuis; MRS agar): 1.60 | inhibition zone to test germ ratio, Campylobacter jejuni (Campylobacter jejuni; MRS agar): 1.36

Pediococcus acidilactici [DSM 20284]
inhibition zone to test germ ratio, Clostridium perfringens (Clostridium perfringens): 1.35 | inhibition zone to test germ ratio, Salmonella choleraesuis (Salmonella choleraesuis; MRS agar): 1.10 | inhibition zone to test germ ratio, Campylobacter jejuni (Campylobacter jejuni; MRS agar): 1.32
